Laboratory results from patent US6573246B1, “Modified ether glyceroglycolipids” (The Liposome Company, Inc., priority 1995, dated 2003).

What was measured:
[1] = test system: A549 cells (non-small cell lung adenocarcinoma); experiment: growth inhibition of A549 cells in culture; format: cell-based, human; details: Homo sapiens, mean ± standard deviation, read-out: Gl50 (concentration of lipid required to inhibit the growth of fifty percent of the cells in culture)
Experimental: (§1) Human epithelial cancer cell lines were grown from frozen stocks originally obtained from the ATCC, in media commonly used for growing these cells in culture. For example, A549 cells (non-small cell lung adenocarcinoma) were cultured in Ham's F-12 medium, T84 cells (colon carcinoma) were cultured in a 1:1 mixture of F-12 and DMEM while MCF-7 (breast adenocarcinoma) and A427 (large cell lung carcinoma) cells were cultured in DMEM. The media were supplemented with 10% fetal bovine serum, penicillin (50 U/ml), streptomycin (50 micogram/ml) and fungizone (0.5 microgram/ml). OVCAR-3 cells (ovarian adenocarcinoma) were cultured in RPMI 1640 medium supplemented with 20% FBS and 10 microgram/ml insulin.
(§2) Cells were subcultured into 24-well plates and the cell number was monitored daily. When the cells were in log phase, the media was replaced with one containing the required drug concentration, and the cells were incubated for 72 h. The increase in cell numbers relative to control wells (without any drug) was determined after the incubation. Stock solutions of the drugs ([…]) were prepared in ethanol and stored at −20 deg. C. Etherlipid solutions (30 micromolar) in the appropriate media were prepared fresh on the day of the experiment and serially diluted to give the required concentrations. The final concentration of ethanol in all wells was 0.1% (v/v).
(§3) Gl50 values are given as the mean ± standard deviation; the Gl50 value from each experiment “n” was generated from three individual wells on two separate plates (six total wells); n=1 for compounds 3-6; n=2 for most cell lines treated with compound 2 ^an=3; ^bn=2; ^cn=6; ^dn=8.

[2] = test system: MCF-7/Adr (adriamycin-resistant) cells; experiment: growth inhibition of MCF7/adr cells in culture; format: cell-based, human; details: Homo sapiens, NCI/ADR-RES, mean ± standard deviation, read-out: Gl50 (concentration of lipid required to inhibit the growth of fifty percent of the cells in culture)
Experimental: (§4) The Gl50 values for edelfosine (1), 2′-deoxy-β-D-arabinopyranosyl (2), 2′-deoxy-α-D-arabinopyranosyl (3), 2-O-methyl-β-D-glucopyranosyl (4), 2′-O-methyl-β-D-mannopyranosyl (5) and α-D-mannopyransoyl (6) on A-549, MCF-7, Lewis Lung, MCF-7/Adr (adriamycin-resistant), P388, P-388/Adr, L1210 and L1210/vmdr cells were determined and are set forth below (see Table 4) as the concentration (micromolar) of lipid required to inhibit the growth of fifty percent of the cells in culture.
as §3

[3] = test system: OVCAR-3 cells (ovarian adenocarcinoma); experiment: growth inhibition of OVCAR-3 cells in culture; format: cell-based, human; details: for growth: increase in cell numbers relative to control wells (control = 100): OVCAR-3, 72 h
Experimental: as §1, §2

Lewis Lung cells = experiment: growth inhibition of Lewis Lung cells in culture; format: cell-based, murine; details: Mus musculus, Lewis lung carcinoma, mean ± standard deviation, read-out: Gl50 (concentration of lipid required to inhibit the growth of fifty percent of the cells in culture)
Experimental: as §4, §3

[4] = test system: MCF-7 (breast adenocarcinoma) cells; experiment: growth inhibition of MCF-7 cells in culture; format: cell-based, human; details: Homo sapiens; MCF7; mean ± standard deviation; read-out: Gl50 (concentration of lipid required to inhibit the growth of fifty percent of the cells in culture)
Experimental: as §1, §2, §3

L1210/vmdr cells = experiment: growth inhibition of L1210/vmdr cells in culture; format: cell-based; details: Mus musculus, mean ± standard deviation, read-out: Gl50 (concentration of lipid required to inhibit the growth of fifty percent of the cells in culture)
Experimental: as §4, §3

P388 cells = experiment: growth inhibition of P388 cells in culture; format: cell-based, murine; details: Mus musculus, mean ± standard deviation, read-out: Gl50 (concentration of lipid required to inhibit the growth of fifty percent of the cells in culture)
Experimental: as §4, §3

P-388/Adr cells = experiment: growth inhibition of P388/adr cells in culture; format: cell-based, murine; details: Mus musculus, mean ± standard deviation, read-out: Gl50 (concentration of lipid required to inhibit the growth of fifty percent of the cells in culture)
Experimental: as §4, §3

HT29 cells = experiment: growth inhibition of HT29 cells in culture; format: cell-based; details: Homo sapiens, HT-29, mean ± standard deviation, read-out: Gl50 (concentration of lipid required to inhibit the growth of fifty percent of the cells in culture)
L1210 cells = experiment: growth inhibition of L1210 cells in culture; format: cell-based; details: Mus musculus, mean ± standard deviation, read-out: Gl50 (concentration of lipid required to inhibit the growth of fifty percent of the cells in culture)
Experimental: as §4, §3

IC50 [1]: 5.05 µM
IC50 [2]: 30.4 µM
IC50 ([3]; Homo sapiens, OVCAR-3 ovarian cancer cell line, read-out: Gl50 (the source's name)): 24 µM
IC50 [4]: 9.66 µM
IC50 (L1210/vmdr cells): 11 µM
IC50 (P388 cells): 4.33 µM
IC50 (P-388/Adr cells): 6.39 µM
IC50 (HT29 cells): 2.2 µM
IC50 (L1210 cells): 3.32 µM
SMILES: CCCCCCCCCCCCCCCCCCOCC(COP(=O)([O-])OCC[N+](C)(C)C)OC (stereo not drawn) [compound 1, edelfosine, reference compound]
growth: increase in cell numbers relative to control wells (control = 100) ([3]; lipid concentration 5 μM): 105.8 ± 8.5
growth: increase in cell numbers relative to control wells (control = 100) ([3]; lipid concentration 10 μM): 77.5 ± 1.0
growth: increase in cell numbers relative to control wells (control = 100) ([3]; lipid concentration 15 μM): 70.7 ± 9.9
growth: increase in cell numbers relative to control wells (control = 100) ([3]; lipid concentration 20 μM): 68.7 ± 13.6
growth: increase in cell numbers relative to control wells (control = 100) ([3]; lipid concentration 30 μM): 20.4 ± 8.1
IC50 (Lewis Lung cells): 30.2 µM
